Values quoted from earlier work in US20140051737A1, “METHODS FOR THE TREATMENT AND DIAGNOSTIC OF PULMONARY ARTERIAL HYPERTENSION” (UNIVERSITE LAVAL, priority 2011, published 2014).

Test system: patients carrying the BRCA1 or BRCA2 mutation
Settings: cited from earlier work

Compound: O=C(c1cc(Cc2n[nH]c(=O)c3ccccc23)ccc1F)N1CCN(C(=O)C2CC2)CC1 [olaparib]
- objective antitumor activity: only showed objective antitumor activity in patients carrying the BRCA1 or BRCA2 mutation
